From patent US10117430B2, “Malononitrile compounds for controlling animal pests” (BASF SE, priority 2012, dated 2018)

Tests used:
Assay type in all cases: in vivo
[1] = test system: Yellow Fever Mosquito (Aedes aegypti); assay: whole plant or invertebrate; conditions: 48 h, in comparison with untreated controls, larval mortality after 2 days
Outline: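 Freshly hatched larvae (5-15 per well) in 200 μl tap water; compounds formulated in 75% water/25% DMSO and sprayed at 2.5 μl per well at several concentrations, two replicates. Incubated 2 days at 28±1° C., 80±5% RH; larval mortality scored visually.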

[2] = test system: Cowpea Aphid (Aphis craccivora); assay: B.1 Cowpea aphid spray test on potted cowpea plants; conditions: in comparison with untreated controls, population reduction assessed after 24, 72 and 120 hours
Method: B.1 Cowpea Aphid (Aphis craccivora)
The active compounds were formulated in 50:50 (v/v) acetone:water. The test solution was prepared at the day of use. Potted cowpea plants colonized with approximately 100-150 aphids of various stages were sprayed after the pest population has been recorded. Population reduction was assessed after 24, 72, and 120 hours.

[3] = test system: Cotton Aphid (Aphis gossypii, Mixed Life Stages); assay: B.14 Cotton aphid test on sprayed cotton plants; conditions: 120 h, in comparison with untreated controls, after 5 days
Method: B.14 Cotton Aphid (Aphis gossypii, Mixed Life Stages)
The active compounds were formulated in cyclohexanone as a 10,000 ppm solution supplied in 1.3 ml ABgene® tubes. These tubes were inserted into an automated electrostatic sprayer equipped with an atomizing nozzle and they served as stock solutions for which lower dilutions were made in 50% acetone:50% water (v/v). A nonionic surfactant (Kinetic®) was included in the solution at a volume of 0.01% (v/v). Cotton plants at the cotyledon stage were infested with aphids prior to treatment by placing a heavily infested leaf from the main aphid colony on top of each cotyledon. Aphids were allowed to transfer overnight to accomplish an infestation of 80-100 aphids per plant and the host leaf was removed. The infested plants were then sprayed by an automated electrostatic plant sprayer equipped with an atomizing spray nozzle. The plants were dried in the sprayer fume hood, removed from the sprayer, and then maintained in a growth room under fluorescent lighting in a 24-hr photoperiod at 25° C. and 20-40% relative humidity. Aphid mortality on the treated plants, relative to mortality on untreated control plants, was determined after 5 days.

[4] = test system: Green Peach Aphid (Myzus persicae); assay: B.3 Green peach aphid systemic test, artificial diet under membrane; conditions: 72 h, concentration of the test solution 2500 mg/L, 3 days
Outline: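 Systemic uptake from artificial liquid diet beneath a membrane, compound formulated in 75% water/25% DMSO and added to diet at several concentrations, two replicates. 5-8 adult aphids fed on treated diet for 3 days at about 23±1° C. and 50±5% RH. Mortality and fecundity scored visually.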

[5] = test system: Silverleaf Whitefly (Bemisia argentifolii); assay: B.5 Silverleaf whitefly test on sprayed cotton plants; conditions: 72 h, in comparison with untreated controls, 3 days after treatment
Outline: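 Cotyledon-stage cotton plants were electrostatically sprayed with compound diluted from a 10,000 ppm cyclohexanone stock into 50% acetone/water with 0.01% nonionic surfactant. After drying, 10–12 adult whiteflies (3–5 days old) were released onto each plant. Mortality was scored after 3 days at 25 °C and 20–40% RH against untreated plants.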

[6] = test system: Boll Weevil (Anthonomus grandis); assay: B.9 Boll weevil microtiter diet test, egg and larval mortality; conditions: 120 h, in comparison with untreated controls, egg and larval mortality after 5 days
Outline: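 Insect diet carrying 20-30 A. grandis eggs per well was sprayed with compounds formulated in 75% water/25% DMSO, at various concentrations with two replicates. Plates were held at about 23±1° C and 50±5% RH for 5 days. Egg and larval mortality were then scored visually.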

[7] = test system: Southern Armyworm (Spodoptera eridania); assay: B.6 Southern armyworm test on sprayed lima bean plants; conditions: 96 h, in comparison with untreated controls, 4 days after treatment
Method: B.6 Southern Armyworm (Spodoptera eridania)
The active compounds were formulated in cyclohexanone as a 10,000 ppm solution supplied in 1.3 ml ABgene® tubes. These tubes were inserted into an automated electrostatic sprayer equipped with an atomizing nozzle and they served as stock solutions for which lower dilutions were made in 50% acetone:50% water (v/v). A nonionic surfactant (Kinetic®) was included in the solution at a volume of 0.01% (v/v). Lima bean plants (variety Sieva) were grown 2 plants to a pot and selected for treatment at the 1st true leaf stage. Test solutions were sprayed onto the foliage by an automated electrostatic plant sprayer equipped with an atomizing spray nozzle. The plants were dried in the sprayer fume hood and then removed from the sprayer. Each pot was placed into perforated plastic bags with a zip closure. Ten to 11 armyworm larvae were placed into the bag and the bags zipped closed. Test plants were maintained in a growth room at 25° C. and 20-40% relative humidity for 4 days, avoiding direct exposure to fluorescent light (24 hour photoperiod) to prevent trapping of heat inside the bags. Mortality and reduced feeding were assessed 4 days after treatment, compared to untreated control plants.

[8] = test system: Rice brown plant hopper (Nilaparvata lugens); assay: B.11 Rice brown plant hopper test on sprayed rice seedlings; conditions: in comparison with untreated controls, after 72 hours
Outline: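 Compounds formulated in 50:50 acetone:water with 0.1% vol/vol surfactant and sprayed onto potted rice seedlings. Air-dried plants were caged, infested with 10 adults and held at about 28-29 °C, 50-60% RH. Percent mortality scored after 72 hours.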

[9] = test system: Green Peach Aphid (Myzus persicae); assay: B.13 Green peach aphid test on sprayed bell pepper plants; conditions: 120 h, in comparison with untreated controls, after 5 days
Excerpt: B.13 Green Peach Aphid (Myzus persicae)
The active compounds were formulated in cyclohexanone as a 10,000 ppm solution supplied in tubes. The tubes were inserted into an automated electrostatic sprayer equipped with an atomizing nozzle and they served as stock solutions for which lower dilutions were made in 50% acetone:50% water (v/v). A nonionic surfactant (Kinetic®) was included in the solution at a volume of 0.01% (v/v). Bell pepper plants at the first true-leaf stage were infested prior to treatment by placing heavily infested leaves from the main colony on top of the treatment plants. Aphids were allowed to transfer overnight to accomplish an infestation of 30-50 aphids per plant and the host leaves were removed. The infested plants were then sprayed by an automated electrostatic plant sprayer equipped with an atomizing spray nozzle. The plants were dried in the sprayer fume hood, removed, and then maintained in a growth room under fluorescent lighting in a 24-hr photoperiod at about 25° C. and about 20-40% relative humidity. Aphid mortality on the treated plants, relative to mortality on untreated control plants, was determined after 5 days.

CC(c1ccc(F)cn1)C(C#N)(C#N)c1ccccc1 (stereo not shown) [II-8]
≥ 75%: mortality at 2500 ppm [1] | mortality at 500 ppm [2] | mortality at 300 ppm [3] | mortality at 2500 µg/mL [4] | mortality at 500 ppm [5] | mortality at 2500 ppm [6] | mortality at 300 ppm ([7]; 300 ppm) | mortality at 500 ppm ([7]; 500 ppm) | mortality at 300 ppm [8] | mortality at 300 ppm [9]
